Reference: patent publication US6737383B1, “Herbicidal oxadiazolidines” (priority 1999, dated 2004)

Assays:
bamyardgrass = experiment: Test B flood test barnyardgrass; assay type: in vivo, Echinochloa crus-galli
Summary of the method: (§1)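 Read-out is a visual response score from 0 (no effect) to 10 (complete control), assigned by comparison with untreated controls. Treatment was applied at the 2-leaf stage, and plants stayed in the greenhouse for twelve to sixteen days before scoring.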

rape = experiment: Test B pre/postemergence rape; assay type: in vivo, Brassica napus
Summary of the method: (§2)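 Response is a visual 0-to-10 score relative to untreated plants, where 0 means no effect and 10 means complete control, taken twelve to sixteen days after application. Treatments went onto soil at planting and onto foliage of 1- to 4-leaf plants, using a surfactant-containing non-phytotoxic solvent.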

rice = experiment: Test B flood test rice; assay type: in vivo, Oryza sativa
Summary of the method: as §1

cocklebur = experiment: Test B pre/postemergence cocklebur; assay type: in vivo, Xanthium strumarium
Summary of the method: as §2

crabgrass = experiment: Test B pre/postemergence crabgrass; assay type: in vivo, Digitaria sanguinalis
Summary of the method: as §2

morningglory = experiment: Test B pre/postemergence morningglory; assay type: in vivo, Ipomoea hederacea
Summary of the method: as §2

corn = experiment: Test B pre/postemergence corn; assay type: in vivo, Zea mays
Summary of the method: as §2

wheat = experiment: Test B pre/postemergence wheat; assay type: in vivo, Triticum aestivum
Summary of the method: as §2

pigweed = experiment: Test B pre/postemergence pigweed; assay type: in vivo, Amaranthus retroflexus
Summary of the method: as §2

surinam grass = experiment: Test B pre/postemergence surinam grass; assay type: in vivo, Brachiaria decumbens
Summary of the method: as §2

blackgrass = experiment: Test B pre/postemergence blackgrass; assay type: in vivo, Alopecurus myosuroides
Summary of the method: as §2

bedstraw = experiment: Test B pre/postemergence bedstraw; assay type: in vivo, Galium aparine
Summary of the method: as §2

wild oat = experiment: Test B pre/postemergence wild oat; assay type: in vivo, Avena fatua
Summary of the method: as §2

purple nutsedge = experiment: Test B pre/postemergence purple nutsedge; assay type: in vivo, Cyperus rotundus
Summary of the method: as §2

sugar beet = experiment: Test B pre/postemergence sugar beet; assay type: in vivo, Beta vulgaris
Summary of the method: as §2

giant foxtail = experiment: Test B pre/postemergence giant foxtail; assay type: in vivo, Setaria faberii
Summary of the method: as §2

[1] = Postemergence, Rate 62 g/ha, scale 0 to 10, 0 is no effect, 10 is complete control
[2] = Rate 125 g/ha, Postemergence section (flood test species), scale 0 to 10, 0 no effect, 10 complete control
[3] = Rate 500 g/ha, Postemergence section of Table B, 0 to 10 scale (0 no effect, 10 complete control)
[4] = flood test, listed under Postemergence, Rate 250 g/ha, scale 0 to 10, 0 no effect, 10 complete control
[5] = Postemergence, Rate 250 g/ha, scale 0 to 10, 0 no effect, 10 complete control
[6] = Preemergence, Rate 62 g/ha, scale 0 to 10, 0 is no effect, 10 is complete control
[7] = Preemergence, Rate 125 g/ha, scale 0 to 10 (0 no effect, 10 complete control)
[8] = Preemergence, Rate 250 g/ha, scale of 0 to 10 where 0 is no effect and 10 is complete control
[9] = Preemergence, Rate 500 g/ha, scale 0 (no effect) to 10 (complete control)
[10] = Rate 125 g/ha, Postemergence, scale 0 to 10, 0 no effect, 10 complete control
[11] = Rate 500 g/ha, Postemergence, 0 to 10 scale (0 no effect, 10 complete control)

SMILES: CC(C)N(C(=O)n1oc(=O)n(-c2ccc(Cl)cc2C(F)(F)F)c1=O)c1ccc(F)cc1 [Compound 20]
- Barnyardgrass plant response rating (bamyardgrass; [1]): 0
- Barnyardgrass plant response rating (bamyardgrass; [2]): 0
- Barnyardgrass plant response rating (bamyardgrass; [3]): 0
- Barnyardgrass plant response rating (bamyardgrass; [4]): 0
- Rape plant response rating (rape; [1]): 0
- Rape plant response rating (rape; [5]): 0
- Plant response rating, Rape (rape; [6]): 0
- Plant response rating, Rape (rape; [7]): 0
- Plant response rating, Rape (rape; [8]): 0
- Rape plant response rating (rape; [9]): 0
- Rape plant response rating (rape; [10]): 0
- Rape plant response rating (rape; [11]): 0
- Rice plant response rating (rice; [1]): 0
- Rice plant response rating (rice; [2]): 0
- Rice plant response rating (rice; [3]): 2
- Rice plant response rating (rice; [4]): 0
- Cocklebur plant response rating (cocklebur; [1]): 0
- Cocklebur plant response rating (cocklebur; [5]): 0
- Plant response rating, Cocklebur (cocklebur; [6]): 0
- Plant response rating, Cocklebur (cocklebur; [7]): 0
- Plant response rating, Cocklebur (cocklebur; [8]): 0
- Cocklebur plant response rating (cocklebur; [9]): 0
- Cocklebur plant response rating (cocklebur; [10]): 0
- Cocklebur plant response rating (cocklebur; [11]): 0
- Crabgrass plant response rating (crabgrass; [1]): 0
- Crabgrass plant response rating (crabgrass; [5]): 3
- Plant response rating, Crabgrass (crabgrass; [6]): 1
- Plant response rating, Crabgrass (crabgrass; [7]): 2
- Plant response rating, Crabgrass (crabgrass; [8]): 6
- Crabgrass plant response rating (crabgrass; [9]): 7
- Crabgrass plant response rating (crabgrass; [10]): 0
- Crabgrass plant response rating (crabgrass; [11]): 7
- Morningglory plant response rating (morningglory; [1]): 4
- Morningglory plant response rating (morningglory; [5]): 7
- Plant response rating, Morningglory (morningglory; [6]): 0
- Plant response rating, Morningglory (morningglory; [7]): 0
- Plant response rating, Morningglory (morningglory; [8]): 0
- Morningglory plant response rating (morningglory; [9]): 0
- Morningglory plant response rating (morningglory; [10]): 7
- Morningglory plant response rating (morningglory; [11]): 8
- Corn plant response rating (corn; [1]): 0
- Corn plant response rating (corn; [5]): 0
- Plant response rating, Corn (corn; [6]): 0
- Plant response rating, Corn (corn; [7]): 0
- Plant response rating, Corn (corn; [8]): 0
- Corn plant response rating (corn; [9]): 0
- Corn plant response rating (corn; [10]): 0
- Corn plant response rating (corn; [11]): 0
- Wheat plant response rating (wheat; [1]): 0
- Wheat plant response rating (wheat; [5]): 0
- Plant response rating, Wheat (wheat; [6]): 0
- Plant response rating, Wheat (wheat; [7]): 0
- Plant response rating, Wheat (wheat; [8]): 0
- Wheat plant response rating (wheat; [9]): 0
- Wheat plant response rating (wheat; [10]): 0
- Redroot pigweed plant response rating (pigweed; [1]): 3
- Redroot pigweed plant response rating (pigweed; [5]): 3
- Plant response rating, Redroot pigweed (pigweed; [6]): 0
- Plant response rating, Redroot pigweed (pigweed; [7]): 2
- Plant response rating, Redroot pigweed (pigweed; [8]): 4
- Redroot pigweed plant response rating (pigweed; [9]): 9
- Redroot pigweed plant response rating (pigweed; [10]): 3
- Redroot pigweed plant response rating (pigweed; [11]): 4
- B. signalgrass plant response rating (surinam grass; [1]): 0
- B. signalgrass plant response rating (surinam grass; [5]): 0
- Plant response rating, B. signalgrass (surinam grass; [6]): 0
- Plant response rating, B. signalgrass (surinam grass; [7]): 0
- Plant response rating, B. signalgrass (surinam grass; [8]): 0
- B. signalgrass plant response rating (surinam grass; [9]): 0
- B. signalgrass plant response rating (surinam grass; [10]): 0
- B. signalgrass plant response rating (surinam grass; [11]): 0
- Blackgrass plant response rating (blackgrass; [1]): 0
- Blackgrass plant response rating (blackgrass; [5]): 0
- Plant response rating, Blackgrass (blackgrass; [6]): 0
- Plant response rating, Blackgrass (blackgrass; [7]): 1
- Plant response rating, Blackgrass (blackgrass; [8]): 1
- Blackgrass plant response rating (blackgrass; [9]): 5
- Blackgrass plant response rating (blackgrass; [10]): 0
- Blackgrass plant response rating (blackgrass; [11]): 2
- Bedstraw plant response rating (bedstraw; [1]): 3
- Bedstraw plant response rating (bedstraw; [5]): 4
- Plant response rating, Bedstraw (bedstraw; [6]): 0
- Plant response rating, Bedstraw (bedstraw; [7]): 0
- Plant response rating, Bedstraw (bedstraw; [8]): 2
- Bedstraw plant response rating (bedstraw; [9]): 6
- Bedstraw plant response rating (bedstraw; [10]): 3
- Bedstraw plant response rating (bedstraw; [11]): 5
- Wild oats plant response rating (wild oat; [1]): 0
- Wild oats plant response rating (wild oat; [5]): 0
- Plant response rating, Wild oats (wild oat; [7]): 0
- Plant response rating, Wild oats (wild oat; [8]): 0
- Wild oats plant response rating (wild oat; [9]): 0
- Wild oats plant response rating (wild oat; [10]): 0
- Nutsedge plant response rating (purple nutsedge; [1]): 0
- Nutsedge plant response rating (purple nutsedge; [5]): 0
- Plant response rating, Nutsedge (purple nutsedge; [6]): 0
- Plant response rating, Nutsedge (purple nutsedge; [7]): 0
- Plant response rating, Nutsedge (purple nutsedge; [8]): 0
- Nutsedge plant response rating (purple nutsedge; [9]): 0
- Nutsedge plant response rating (purple nutsedge; [10]): 0
- Nutsedge plant response rating (purple nutsedge; [11]): 0
- Sugarbeets plant response rating (sugar beet; [1]): 0
- Plant response rating, Sugarbeets (sugar beet; [6]): 0
- Plant response rating, Sugarbeets (sugar beet; [7]): 0
- Plant response rating, Sugarbeets (sugar beet; [8]): 2
- Sugarbeets plant response rating (sugar beet; [9]): 7
- Sugarbeets plant response rating (sugar beet; [10]): 0
- Giant foxtail plant response rating (giant foxtail; [1]): 0
- Giant foxtail plant response rating (giant foxtail; [5]): 1
- Plant response rating, Giant foxtail (giant foxtail; [6]): 3
- Plant response rating, Giant foxtail (giant foxtail; [7]): 5
- Plant response rating, Giant foxtail (giant foxtail; [8]): 7
- Giant foxtail plant response rating (giant foxtail; [9]): 9
- Giant foxtail plant response rating (giant foxtail; [10]): 0
- Giant foxtail plant response rating (giant foxtail; [11]): 1
